Reference: patent US20210123061A1, “METHODS AND COMPOSITIONS FOR TREATING INFLAMMATORY DISEASE OR DISORDER” (THE BRIGHAM AND WOMEN'S HOSPITAL, INC., priority 2018, published 2021)

Columns and labels:
[1] = system: phospho-RSK1-Ser380; experiment: Anti-RSK1 immunoprecipitation and immunoblot in IFN-γ-stimulated PBMC-derived macrophages; type: cell-based, human; conditions: 10 μM pre-treatment two hours, IFN-γ up to 90 minutes, serum starvation
Description: FIGS. 3A-3F show RSK1 is activated through JAK signaling and its inhibition suppresses STAT1 phosphorylation at Ser727 in human primary macrophages in response to IFN-γ. (FIG. 3A) PBMC-derived macrophages were pre-treated with DMSO or 10 μM a pan-JAK inhibitor, pyridone-6, for two hours and then stimulated with IFN-γ for indicated time under serum starvation. Cell lysates were subjected to immunoprecipitation with normal IgG or anti-RSK1 followed by immunoblot analysis using the indicated antibodies. WCL, whole cell lysate. N=3 donors. (FIG. 3B) Immunoblots of cell lysates from macrophages that were transfected with control siRNA or RSK1 siRNA followed by stimulation with IFN-γ for indicated time under serum starvation. N=2 donors. (FIG. 3C) Immunoblots of cell lysates from macrophages that were pre-treated with DMSO or BI-D1870 for two hours and subsequently left unstimulated or stimulated with IFN-γ for 1 hour under serum starvation. (FIG. 3D) Densitometric based quantification (ImageJ Software) of STAT1-pSer727 in panel (FIG. 3C) plus three additional donors. The phosphorylation levels in cells pretreated with DMSO and stimulated were defined as 1.0. Data are means±SE. […] (FIG. 3F) Quantification of PRM ions (MS/MS ions) of the indicated STAT1 peptide harboring a phosphorylation at Ser727 (and oxidized methionine, m), generated from the digest of panel […]. […]

[2] = system: STAT1 phosphorylation (Ser727, Tyr701); experiment: Immunoblot of STAT1 phosphorylation in IFN-γ-stimulated PBMC-derived macrophages; type: cell-based, human; conditions: 10 μM pre-treatment, IFN-γ, cell lysates
Description: FIGS. 3A-3F show RSK1 is activated through JAK signaling and its inhibition suppresses STAT1 phosphorylation at Ser727 in human primary macrophages in response to IFN-γ. (FIG. 3A) PBMC-derived macrophages were pre-treated with DMSO or 10 μM a pan-JAK inhibitor, pyridone-6, for two hours and then stimulated with IFN-γ for indicated time under serum starvation. Cell lysates were subjected to immunoprecipitation with normal IgG or anti-RSK1 followed by immunoblot analysis using the indicated antibodies. WCL, whole cell lysate. N=3 donors. (FIG. 3B) Immunoblots of cell lysates from macrophages that were transfected with control siRNA or RSK1 siRNA followed by stimulation with IFN-γ for indicated time under serum starvation. N=2 donors. (FIG. 3C) Immunoblots of cell lysates from macrophages that were pre-treated with DMSO or BI-D1870 for two hours and subsequently left unstimulated or stimulated with IFN-γ for 1 hour under serum starvation. (FIG. 3D) Densitometric based quantification (ImageJ Software) of STAT1-pSer727 in panel (FIG. 3C) plus three additional donors. The phosphorylation levels in cells pretreated with DMSO and stimulated were defined as 1.0. Data are means±SE. N=6 donors. **P<0.01 indicate significance for phosphorylation levels compared to control (treatment with DMSO and IFN-γ) by Dunnett's comparison test. (FIG. 3E) Macrophages were treated with DMSO or BI-d1870 for two hours followed by IFN-γ stimulation under serum starvation. Cell lysates were subjected to immunoprecipitation with normal IgG or anti-STAT1-pSer727 followed by SYPRO ruby stain or immunoblot analysis with the indicated antibodies. Immunoprecipitants in the gel (red square) were in-gel digested for parallel reaction monitoring (PRM) mass spectrometry. (FIG. 3F) Quantification of PRM ions (MS/MS ions) of the indicated STAT1 peptide harboring a phosphorylation at Ser727 (and oxidized methionine, m), generated from the digest of panel […].
Cell culture of human PBMC-derived primary macrophages. […]

CC(C)(C)c1nc2c3cc[nH]c(=O)c3c3cc(F)ccc3c2[nH]1 [Pyridone-6]
phospho-RSK1-Ser380 signal [1]: marked suppression | phospho-STAT-Ser727 signal [2]: similar
